According to patent US4421767A, “Compounds and methods for treating depression” (priority 1982, dated 1983):
Where two headings read alike, the source gives them in different places.

Assays:
MAO [1] = assay: In vitro MAO inhibition; assay type: biochemical
[2] = test system: heart rate and blood pressure responses to tyramine; assay: Potentiation of tyramine response after 5 days oral MAO inhibitor in rats (Table I); assay type: in vivo, rat; settings: for Tyramine Potentiation: 5 days, tyramine i.d.
Experimental: (A) Rats were gavaged daily for 5 days with saline or 2-amino-4-fluoro-3-(3'-hydroxyphenyl)-3-butenoic acid (AFHBA) at dosages of 15.6, 62.5, 250, or 1000 μg/kg or with clorgyline at dosages of 1250 or 5000 μg/kg. On the 6th day, rats were anaesthetized and heart rate and blood pressure responses to tyramine (0.3-50 mg/kg) administered intraduodenally (i.d.) were determined. Additionally, monoamines and MAO activity were determined in various tissues including brain.

MAO-A = settings: literature; cited from earlier work
MAO [3] = settings: literature; cited from earlier work
[4] = test system: brain noradrenaline and 5-HT concentrations; assay: Brain amine concentration after 5 days oral MAO inhibitor in rats (Table I); assay type: in vivo, rat; settings: for Brain Amine Concentration, 5-HT / Brain Amine Concentration, Noradrenaline: 5 days
Experimental: On the 6th day, rats were anaesthetized and heart rate and blood pressure responses to tyramine (0.3-50 mg/kg) administered intraduodenally (i.d.) were determined. Additionally, monoamines and MAO activity were determined in various tissues including brain.

depression = settings: literature; cited from earlier work
[5] = test system: brain noradrenaline and 5-HT concentrations; assay: Brain amine concentration, AFHBA with or without carbidopa pretreatment in rats (Table II); assay type: in vivo, rat; settings: for Brain Amine Concentration, 5-HT / Brain Amine Concentration, Noradrenaline: 5 days
Experimental: (§1) (B) Rats were gavaged with saline or carbidopa given at dosage of 10 or 100 mg/kg. Thirty minutes later, the rats were gavaged with saline or AFHBA given at a dosage of 62.5 μg/kg. This treatment was repeated daily for 5 days. On the 6th day, the rats were anaesthetized and heart rate and blood pressure responses to tyramine (0.3-50 mg/kg, i.d.) were determined. Additionally, monoamines and MAO activity were determined in various tissues, including brain.

MAO [6] = assay: Ex vivo MAO activity in rats, protection by extracerebral AADC inhibitor; design: species or system rat; settings: carbidopa 50 mg/kg i.p. with AFHBA, compared with MFMD 2.0 mg/kg i.p., heart
Experimental: (§2) Rats were injected with AFHBA (0.5 mg/kg, i.p.) alone or with AFHBA (0.5 mg/kg, i.p.) in combination with MFMD (2.0 mg/kg, i.p.) administered 30 minutes before AFHBA. Animals were killed 18 hours later and MAO activity (5-HT and phenethylamine as substrates) was determined in brain, heart, and liver. In the brain, AFHBA administered alone inhibited neuronal MAO by 72% and non-neuronal MAO by 37%.
MAO activity was determined in the brain using 5-HT and phenethylamine (PEA) as substrates.

[7] = test system: heart rate and blood pressure responses to tyramine; assay type: in vivo, rat; settings: for Tyramine Potentiation: 5 days, tyramine i.d.
Experimental: as §1

neuronal MAO = assay: Ex vivo MAO activity after i.p. injection in rats, neuronal MAO; design: species or system rat; settings: AFMBA 100 mg/kg i.p., 18 hours
Experimental: as §2
(§3) III. Rats were injected with AFMBA (100 mg/kg, i.p.) and were killed 18 hours later. MAO activity was determined in the brain, heart, and liver using 5-HT and PEA.

non-neuronal MAO = assay: Ex vivo MAO activity after i.p. injection in rats, non-neuronal MAO; design: species or system rat; settings: AFMBA 100 mg/kg i.p., 18 hours
Experimental: as §2, §3

MAO-B = settings: literature; cited from earlier work
cheese effect = settings: low dosages where preferential inhibition of MAO-B occurs; cited from earlier work
[8] = Clorgyline 5000 μg/kg daily p.o.
[9] = Clorgyline 1250 μg/kg daily p.o.
[10] = carbidopa alone 10000 μg/kg daily p.o.
[11] = carbidopa alone 100000 μg/kg daily p.o.

NCC(=CF)c1cccc(O)c1 [2-(3'-hydroxy)phenyl-3-fluoroallylamine]
MAO inhibition type (MAO [1]): time-dependent irreversible inhibitor | IC50 (MAO [1]; unit inferred): ~1 nM

C#CCN(C)CCCOc1ccc(Cl)cc1Cl [Clorgyline, reference compound]
Tyramine Potentiation ([2]; Clorgyline 1250 μg/kg daily p.o., some potentiation at lowest doses of tyramine (footnote c)): 1.0 | Tyramine Potentiation [2, 8]: 5.0 | potentiation of the tyramine response (dose relation) ([2]; subacute treatment): potentiation of the tyramine response | preferential inhibition of MAO-A (MAO-A): preferentially inhibited | selectivity at lower versus higher dosages (MAO [3]): selective inhibitors at lower dosages, but are not selective inhibitors at higher dosages | Brain Amine Concentration, 5-HT [4, 9]: 620 ± 34 ng/g | Brain Amine Concentration, Noradrenaline [4, 9]: 351 ± 11 ng/g | Brain Amine Concentration, 5-HT [4, 8]: 1027 ± 82 ng/g | Brain Amine Concentration, Noradrenaline [4, 8]: 329 ± 19 ng/g | brain noradrenaline and 5-HT concentrations (dose relation) ([4]; subacute treatment): dose-related increases in brain noradrenaline and 5-HT concentrations | clinical antidepressant effect (depression): clinically effective antidepressant agents

N[C@@H]1C[C@H]1c1ccccc1 (relative stereo) [tranylcypromine]
preference of action upon MAO (MAO [3]): not preferential in their action upon MAO

NNCCc1ccccc1 [phenelzine]
preference of action upon MAO (MAO [3]): not preferential in their action upon MAO

C[C@@](Cc1ccc(O)c(O)c1)(NN)C(=O)O [Carbidopa, reference compound]
elevation of brain monoamines on coadministration with AFHBA ([5]; carbidopa 10 mg/kg + AFHBA 62.5 μg/kg): significantly enhanced the elevation of brain monoamines | effectiveness of AFHBA to raise brain monoamines on coadministration ([5]; carbidopa 100 mg/kg + AFHBA): reduced the effectiveness of AFHBA to raise brain monoamines | Brain Amine Concentration, 5-HT [5, 10]: 599 ± 31 ng/g | Brain Amine Concentration, Noradrenaline [5, 10]: 366 ± 3 ng/g | Brain Amine Concentration, 5-HT [5, 11]: 443 ± 19 ng/g | Brain Amine Concentration, Noradrenaline [5, 11]: 271 ± 19 ng/g | protective effect against inhibition of MAO in the heart (MAO [6]): same protective effect against inhibition of MAO in the heart as MFMD | effect on tyramine response ([7]; carbidopa alone 10 mg/kg): no effect on tyramine response | Tyramine Potentiation [7, 10]: 1.1 | Tyramine Potentiation [7, 11]: 2.3 | effect on tyramine response ([7]; carbidopa alone 100 mg/kg): potentiated the tyramine response

COc1ccc(C(=CF)C(N)C(=O)O)cc1O (centres unmarked) [AFMBA, 2-amino-4-fluoro-3-(3'-hydroxy-4-methoxyphenyl)-3-butenoic acid]
% Inhibition of MAO, Neuronal (neuronal MAO; brain): 16% | % Inhibition of MAO, Neuronal (neuronal MAO; heart): 18% | % Inhibition of MAO, Neuronal (neuronal MAO; liver): 2% | % Inhibition of MAO, Non-neuronal (non-neuronal MAO; brain): 40% | % Inhibition of MAO, Non-neuronal (non-neuronal MAO; heart): 46% | % Inhibition of MAO, Non-neuronal (non-neuronal MAO; liver): 11%

C#CCN(C)Cc1ccccc1 [pargyline]
preferential inhibition of MAO-B (MAO-B): preferentially inhibited | selectivity at lower versus higher dosages (MAO [3]): selective inhibitors at lower dosages, but are not selective inhibitors at higher dosages | clinical antidepressant effect (depression): clinically effective antidepressant agents

C#CCN(C)[C@H](C)Cc1ccccc1 [L-deprenyl]
cheese effect (cheese effect): not observed | clinical antidepressant effect (depression): clinically effective antidepressant agents

Cc1cc(C(=O)NNCc2ccccc2)no1 [isocarboxazid]
preference of action upon MAO (MAO [3]): not preferential in their action upon MAO
